Assay results as given in ChEMBL document CHEMBL1140732, “2-(3-aryl-3-oxopropen-1-yl)-9-tert-butyl-paullones: a new antileishmanial chemotype” (J Med Chem, 2008).

Experiments:
Leishmania donovani [1] = assay: microbe, parasite or virus in culture; type: functional; conditions: 1S-C12d
Description: Antileishmanial activity against Leishmania donovani MHOM/SD/1962/1S-C12d axenic amastigotes at 15 uM by alamar blue viability assay

Leishmania donovani [2] = assay: microbe, parasite or virus in culture; type: functional; conditions: 1S-C12d, THP-1
Description: Growth inhibition of Leishmania donovani MHOM/SD/1962/1S-C12d axenic amastigotes in infected THP1 macrophages at 5 uM by alamar blue viability assay

Leishmania donovani [3] = assay: microbe, parasite or virus in culture; type: functional; conditions: 1S-C12d; remark: listed apart in the source
Description: Antileishmanial activity against Leishmania donovani MHOM/SD/1962/1S-C12d axenic amastigotes by alamar blue viability assay

THP-1 [4] = assay: Toxicity against human THP1 cells at 5 uM by alamar blue viability assay; conditions: thp-1, 5 µM
[5] = Inhibition of fumarate reductase in crude mitochondria fraction of Leishmania major promastigotes
[6] = Inhibition of fumarate reductase in permeabilized Leishmania major promastigotes
Leishmania donovani [7] = assay: Inhibition of Leishmania donovani infection in mouse macrophages; type: functional; conditions: read-out: ED50 (the source's name)
[8] = Toxicity against mouse macrophages at 10 uM; type: cell-based; conditions: macrophage
THP-1 [9] = assay: Toxicity against human THP1 cells at 1 uM by alamar blue viability assay; type: cell-based; conditions: thp-1, 1 µM
Leishmania donovani [10] = assay: Growth inhibition of Leishmania donovani MHOM/SD/1962/1S-C12d […] amastigotes in infected THP1 macrophages at 1 uM by alamar blue viability assay; type: functional; conditions: THP-1

Row | Compound | inhibition at 15 µM (Leishmania donovani [1]) | inhibition at 5 µM (Leishmania donovani [2]) | GI50 (Leishmania donovani [3]) | Activity (THP-1 [4]) | IC50 [5] | IC50 [6] | EC50 (Leishmania donovani [7]) | Activity [8] | Activity (THP-1 [9]) | inhibition at 1 µM (Leishmania donovani [10])
1 | CC(C)(C)c1ccc2[nH]c3c(c2c1)CC(=O)Nc1ccc(C#Cc2ccccc2)cc1-3 | 79.6% | 72% | 860 nM | 9% |  |  |  |  |  | 
2 | CC(=O)/C=C/c1ccc2c(c1)-c1[nH]c3ccccc3c1CC(=O)N2 | 98.7% | 11.4% | 3400 nM | 0% |  |  |  |  |  | 
3 | COc1cc(C(=O)/C=C/c2ccc3c(c2)-c2[nH]c4ccc(C(C)(C)C)cc4c2CC(=O)N3)cc(OC)c1OC | 96.8% | 99.2% | 1100 nM | 92.7% |  |  |  |  |  | 
4 | COc1ccc(C(=O)/C=C/c2ccc(NC(C)=O)cc2)cc1 | 69.6% |  |  |  |  |  |  |  |  | 
5 | CC(C)(C)c1ccc2[nH]c3c(c2c1)CC(=O)Nc1ccc(/C=C/C(=O)c2ccc(Cl)cc2)cc1-3 | 98.3% | 76.8% | 1200 nM | 0% |  |  |  |  |  | 
6 | CC(=O)/C=C/c1ccc2c(c1)-c1[nH]c3ccc(C(C)(C)C)cc3c1CC(=O)N2 | 99% | 56.2% | 2800 nM | 62% |  |  |  |  |  | 
7 | COc1ccc(OC)c(C(=O)/C=C/c2ccc3c(c2)-c2[nH]c4ccc(C(C)(C)C)cc4c2CC(=O)N3)c1 | 96.8% | 93.8% | 1100 nM | 95.7% |  |  |  |  |  | 
8 | CC(=O)/C=C/c1ccc2c(c1)-c1[nH]c3ccc(F)cc3c1CC(=O)N2 | 45.4% | 0% |  | 0% |  |  |  |  |  | 
9 | C=CC(C)(C)c1cc(/C=C/C(=O)c2ccc(O)cc2)c(OC)cc1O [LICOAGROCHACONE A] |  |  |  |  | 1400 nM | 1200 nM |  |  |  | 
10 | CC(C)(C)c1ccc2[nH]c3c(c2c1)CC(=O)Nc1ccc(/C=C/C(=O)c2cccs2)cc1-3 | 98.8% | 79.3% | 1000 nM | 60.5% |  |  |  |  |  | 
11 | COc1ccc(C(=O)/C=C/c2ccc3c(c2)-c2[nH]c4ccc(C(C)(C)C)cc4c2CC(=O)N3)cc1OC | 95.5% | 86% | 1000 nM | 49.7% |  |  |  |  |  | 
12 | N#Cc1ccc2[nH]c3c(c2c1)CC(=O)Nc1ccccc1-3 [PAULLONE 2] |  |  |  |  |  |  | 19600 nM | Toxic |  | 
13 | C[C@@H]1[C@H](O)[C@@H](C)/C=C/C=C/C=C/C=C/C=C/C=C/C=C/[C@H](O[C@@H]2O[C@H](C)[C@@H](O)[C@H](N)[C@@H]2O)C[C@@H]2O[C@](O)(C[C@@H](O)C[C@@H](O)[C@H](O)CC[C@@H](O)C[C@@H](O)CC(=O)O[C@H]1C)C[C@H](O)[C@H]2C(=O)O (stereo in doubt) [AMPHOTERICIN B] |  |  |  |  |  |  |  |  | > 90% | > 90%
14 | CC(=O)/C=C/c1ccc2c(c1)-c1[nH]c3ccc(C)cc3c1CC(=O)N2 | 65.2% | 0% | 12000 nM | 0% |  |  |  |  |  | 
15 | CC(=O)/C=C/c1ccc2c(c1)-c1[nH]c3ccc(C#N)cc3c1CC(=O)N2 | 9.8% | 0% |  | 48% |  |  |  |  |  | 
16 | CC(C)(C)c1ccc2[nH]c3c(c2c1)CC(=O)Nc1ccc(/C=C/C(=O)c2ccccc2)cc1-3 | 99% | 61.8% | 1100 nM | 0% |  |  |  |  |  | 
17 | COc1ccc(C(=O)/C=C/c2ccc3c(c2)-c2[nH]c4ccc(C(C)(C)C)cc4c2CC(=O)N3)c(OC)c1 | 93.6% | 85.6% | 840 nM | 0% |  |  |  |  |  | 
18 | Cc1ccc2[nH]c3c(c2c1)CC(=O)Nc1ccc(/C=C/C(=O)c2ccc(Cl)cc2)cc1-3 | 17.4% | 0% |  | 0% |  |  |  |  |  | 
19 | O=C1Cc2c([nH]c3ccccc23)-c2cc(/C=C/C(=O)c3ccccc3)ccc2N1 | 99.6% | 0% | 5000 nM | 0% |  |  |  |  |  | 
20 | CC(C)(C)c1ccc2[nH]c3c(c2c1)CC(=O)Nc1ccc(/C=C/C(=O)c2cccnc2)cc1-3 | 98.1% | 76.2% | 780 nM | 0% |  |  |  |  |  | 
21 | CC(C)(C)c1ccc2[nH]c3c(c2c1)CC(=O)Nc1ccc(/C=C/C(=O)c2ccc(O)cc2)cc1-3 | 97.2% | 54.8% | 3000 nM | 80.3% |  |  |  |  |  | 
22 | CC(C)(C)c1ccc2[nH]c3c(c2c1)CC(=O)Nc1ccc(/C=C/C#N)cc1-3 | 63.8% | 47.3% | 3600 nM | 0% |  |  |  |  |  | 
23 | CC(C)(C)c1ccc2[nH]c3c(c2c1)CC(=O)Nc1ccc(/C=C/C(=O)c2ccco2)cc1-3 | 97.6% | 76.2% | 760 nM | 3.3% |  |  |  |  |  | 
24 | COc1ccc(C(=O)/C=C/c2ccc3c(c2)-c2[nH]c4ccc(C(C)(C)C)cc4c2CC(=O)N3)cc1 | 97.5% | 71.7% | 1200 nM | 0% |  |  |  |  |  | 
